In patent publication US7074789B2, “Kinase inhibitors” (Amgen Inc., priority 1999, dated 2006):

Assays:
Assay type in all cases: biochemical
Zap-70 = target: T1, Zap-70 (Homo sapiens, UniProt P43403); experiment: Kinase inhibition assay (33P transfer), Zap-70; details: read-out: Zap-1
T1 construct: Kinases are expressed as either kinase domains or full length constructs; made in house
T1 sequence (P43403 1-619): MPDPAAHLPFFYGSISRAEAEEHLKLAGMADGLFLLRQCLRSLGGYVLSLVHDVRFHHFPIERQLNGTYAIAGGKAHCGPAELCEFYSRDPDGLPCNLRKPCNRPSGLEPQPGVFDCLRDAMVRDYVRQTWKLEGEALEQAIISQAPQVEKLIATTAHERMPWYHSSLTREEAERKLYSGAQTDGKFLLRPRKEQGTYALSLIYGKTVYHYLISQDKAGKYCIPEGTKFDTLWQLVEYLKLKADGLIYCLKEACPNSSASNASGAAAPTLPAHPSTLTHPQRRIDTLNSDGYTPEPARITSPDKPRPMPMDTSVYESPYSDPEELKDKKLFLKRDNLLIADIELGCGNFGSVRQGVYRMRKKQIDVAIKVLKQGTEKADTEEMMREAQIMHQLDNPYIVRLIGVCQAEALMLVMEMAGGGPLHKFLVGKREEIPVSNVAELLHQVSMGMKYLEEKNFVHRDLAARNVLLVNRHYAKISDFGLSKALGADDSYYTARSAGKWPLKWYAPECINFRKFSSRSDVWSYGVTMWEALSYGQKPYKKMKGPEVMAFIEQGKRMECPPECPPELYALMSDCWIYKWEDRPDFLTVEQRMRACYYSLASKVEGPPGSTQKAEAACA
Summary of the method: (§1)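 GST/His-tagged kinase (domain or full length; E. coli or baculovirus) + [33P]ATP on plates coated with poly(Glu,Tyr) 4:1 or poly(Arg,Ser) 3:1; incubate, wash 0.5% H3PO4, add scintillant, count.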

Kdr = target: T2, Kdr (Homo sapiens, UniProt P35968); experiment: Kinase inhibition assay (33P transfer), Kdr; details: read-out: KDR-1
T2 construct: Kinases are expressed as either kinase domains or full length constructs; made in house
Summary of the method: as §1

c-Met = target: T3, c-Met (Homo sapiens, UniProt P08581); experiment: Kinase inhibition assay (33P transfer), c-Met; details: Table 2, kinase inhibition class; read-out: Met-1
T3 construct: Kinases are expressed as either kinase domains or full length constructs; made in house
Summary of the method: (§2)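 IC50: inhibitor concentration lowering 33P incorporation into immobilised substrate by 50%. Label transferred from ATP to poly(Glu,Tyr) 4:1 or poly(Arg,Ser) 3:1 is measured after a 0.5% phosphoric acid wash by liquid scintillation.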

Src = target: T4, Src (Homo sapiens, UniProt P12931); experiment: Kinase inhibition assay (33P transfer), Src; details: Table 6, Src-1 kinase inhibition class
T4 construct: Kinases are expressed as either kinase domains or full length constructs; made in house
Summary of the method: as §2

ErbB2 = target: T5, ErbB2 (Homo sapiens, UniProt P04626); experiment: Kinase inhibition assay (33P transfer), ErbB2; details: read-out: ErbB2-2
T5 construct: Kinases are expressed as either kinase domains or full length constructs; made in house
Summary of the method: as §2

Ret-1 = target: T6, Ret-1 (Homo sapiens, UniProt P07949); experiment: Kinase inhibition assay (33P transfer), Ret; details: Table 6, Ret-1 kinase inhibition class
T6 construct: Kinases are expressed as either kinase domains or full length constructs; made in house
T6 sequence (P07949 29-1114): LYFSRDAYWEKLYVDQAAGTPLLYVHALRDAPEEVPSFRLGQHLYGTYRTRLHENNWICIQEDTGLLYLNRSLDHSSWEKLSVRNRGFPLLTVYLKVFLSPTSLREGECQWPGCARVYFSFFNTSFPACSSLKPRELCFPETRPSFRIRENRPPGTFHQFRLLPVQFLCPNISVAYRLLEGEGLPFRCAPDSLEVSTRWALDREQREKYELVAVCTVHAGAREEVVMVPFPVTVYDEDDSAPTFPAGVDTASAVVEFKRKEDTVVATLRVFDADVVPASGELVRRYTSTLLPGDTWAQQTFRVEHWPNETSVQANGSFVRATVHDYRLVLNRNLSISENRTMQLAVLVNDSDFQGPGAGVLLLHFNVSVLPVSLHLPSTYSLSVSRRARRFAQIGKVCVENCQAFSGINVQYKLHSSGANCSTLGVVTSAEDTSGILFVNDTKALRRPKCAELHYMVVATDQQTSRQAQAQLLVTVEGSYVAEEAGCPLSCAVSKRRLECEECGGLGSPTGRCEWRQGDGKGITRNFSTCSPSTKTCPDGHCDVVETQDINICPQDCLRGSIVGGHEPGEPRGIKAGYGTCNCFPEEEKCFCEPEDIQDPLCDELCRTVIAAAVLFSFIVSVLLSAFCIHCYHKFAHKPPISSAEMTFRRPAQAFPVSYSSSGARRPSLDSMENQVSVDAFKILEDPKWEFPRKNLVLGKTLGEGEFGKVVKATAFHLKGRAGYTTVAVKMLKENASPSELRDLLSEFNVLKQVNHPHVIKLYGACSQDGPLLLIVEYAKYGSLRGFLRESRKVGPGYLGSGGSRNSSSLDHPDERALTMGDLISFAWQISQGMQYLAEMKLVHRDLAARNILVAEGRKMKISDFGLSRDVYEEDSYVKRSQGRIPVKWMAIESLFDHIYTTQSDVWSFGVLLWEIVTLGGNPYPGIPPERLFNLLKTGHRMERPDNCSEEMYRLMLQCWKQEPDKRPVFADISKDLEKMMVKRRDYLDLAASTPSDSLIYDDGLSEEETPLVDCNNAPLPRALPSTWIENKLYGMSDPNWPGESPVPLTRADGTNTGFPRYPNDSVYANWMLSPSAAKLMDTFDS

Tek = target: T7, Tek (Homo sapiens, UniProt Q02763); experiment: Kinase inhibition assay (33P transfer), Tek; details: read-out: Tek-1
T7 construct: Kinases are expressed as either kinase domains or full length constructs; made in house
Summary of the method: as §2

AKT = target: T8, AKT (Homo sapiens, UniProt Q9Y243); experiment: Kinase inhibition assay (33P transfer), AKT; details: Table 2, kinase inhibition class; read-out: AKT3-1
T8 construct: Kinases are expressed as either kinase domains or full length constructs; made in house
T8 sequence (Q9Y243 whole entry, the tested form may be a part): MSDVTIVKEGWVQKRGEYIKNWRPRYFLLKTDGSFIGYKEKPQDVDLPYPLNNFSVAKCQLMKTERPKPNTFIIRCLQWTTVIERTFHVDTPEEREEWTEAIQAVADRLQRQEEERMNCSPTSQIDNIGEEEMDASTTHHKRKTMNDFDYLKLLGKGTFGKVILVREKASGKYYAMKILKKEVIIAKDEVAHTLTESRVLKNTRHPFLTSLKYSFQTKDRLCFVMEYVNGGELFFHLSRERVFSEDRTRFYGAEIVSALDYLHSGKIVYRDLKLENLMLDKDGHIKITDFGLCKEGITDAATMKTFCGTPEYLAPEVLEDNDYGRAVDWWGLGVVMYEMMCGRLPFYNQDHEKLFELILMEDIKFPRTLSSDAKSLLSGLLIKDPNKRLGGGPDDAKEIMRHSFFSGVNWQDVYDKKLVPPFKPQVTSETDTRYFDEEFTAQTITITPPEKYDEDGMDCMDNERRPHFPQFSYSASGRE
Summary of the method: as §1

PDGFRB = target: T9, PDGFRB (Homo sapiens, UniProt P09619); experiment: Kinase inhibition assay (33P transfer), PDGFRB; details: read-out: PDGFRB-1
T9 construct: Kinases are expressed as either kinase domains or full length constructs; made in house

IGFR-1 = target: T10, IGFR-1 (Homo sapiens, UniProt P08069); experiment: Kinase inhibition assay, IGFR-1 (Table 2); details: Table 2, kinase inhibition class
T10 construct: Kinases are expressed as either kinase domains or full length constructs; made in house

Itk = target: T11, Itk (Homo sapiens, UniProt Q08881); experiment: Kinase inhibition assay (33P transfer), Itk; details: read-out: Itk-1
T11 construct: Kinases are expressed as either kinase domains or full length constructs; made in house
T11 sequence (Q08881 1-620): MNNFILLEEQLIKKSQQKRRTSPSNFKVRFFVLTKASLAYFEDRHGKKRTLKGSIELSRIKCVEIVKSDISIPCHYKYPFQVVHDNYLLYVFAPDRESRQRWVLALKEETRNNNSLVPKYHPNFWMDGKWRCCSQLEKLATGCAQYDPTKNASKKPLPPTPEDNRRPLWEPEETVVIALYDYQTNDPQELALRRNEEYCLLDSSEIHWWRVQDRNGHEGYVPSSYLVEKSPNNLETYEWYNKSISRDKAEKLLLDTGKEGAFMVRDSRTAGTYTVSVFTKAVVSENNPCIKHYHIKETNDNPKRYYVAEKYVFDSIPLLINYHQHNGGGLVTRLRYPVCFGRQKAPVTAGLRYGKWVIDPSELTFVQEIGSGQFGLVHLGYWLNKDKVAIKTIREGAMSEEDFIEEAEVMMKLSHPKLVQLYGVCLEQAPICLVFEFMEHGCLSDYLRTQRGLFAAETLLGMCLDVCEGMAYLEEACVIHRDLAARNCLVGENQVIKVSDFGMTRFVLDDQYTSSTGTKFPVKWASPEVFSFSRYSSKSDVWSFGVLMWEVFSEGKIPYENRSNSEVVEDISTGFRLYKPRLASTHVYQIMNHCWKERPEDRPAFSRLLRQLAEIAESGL
Summary of the method: as §2

Fyn = target: T12, Fyn (Homo sapiens, UniProt P06241); experiment: Kinase inhibition assay (33P transfer), Fyn; details: read-out: Fyn-1
T12 construct: Kinases are expressed as either kinase domains or full length constructs; made in house
T12 sequence (P06241 whole entry, species assumed, the tested form may be a part): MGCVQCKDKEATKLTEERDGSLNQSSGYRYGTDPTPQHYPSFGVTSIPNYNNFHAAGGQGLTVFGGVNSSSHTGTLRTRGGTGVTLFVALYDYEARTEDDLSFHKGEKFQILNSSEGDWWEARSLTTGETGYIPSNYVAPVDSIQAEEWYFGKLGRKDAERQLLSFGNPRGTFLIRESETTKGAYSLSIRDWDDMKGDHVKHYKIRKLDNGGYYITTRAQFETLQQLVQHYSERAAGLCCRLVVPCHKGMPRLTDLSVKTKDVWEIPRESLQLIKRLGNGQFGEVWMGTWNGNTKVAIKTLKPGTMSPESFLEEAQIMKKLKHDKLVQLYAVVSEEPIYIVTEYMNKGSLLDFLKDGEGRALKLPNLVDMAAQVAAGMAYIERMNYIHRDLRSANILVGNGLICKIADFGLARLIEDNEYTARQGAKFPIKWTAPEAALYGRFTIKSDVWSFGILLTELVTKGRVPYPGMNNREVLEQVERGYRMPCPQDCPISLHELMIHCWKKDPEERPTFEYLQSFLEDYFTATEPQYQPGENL
Summary of the method: as §2

EGFR = target: T13, EGFR (Homo sapiens, UniProt P00533); experiment: Kinase inhibition assay (33P transfer), EGFR; details: Table 2, kinase inhibition class; read-out: EGFR-1
T13 construct: Kinases are expressed as either kinase domains or full length constructs; made in house
Summary of the method: as §2

Lck = target: T14, Lck (Homo sapiens, UniProt P06239); experiment: Kinase inhibition assay (33P transfer), Lck; details: read-out: Lck-1
T14 construct: Kinases are expressed as either kinase domains or full length constructs; made in house
Summary of the method: as §1

Flt-1 = target: T15, Flt-1 (Homo sapiens, UniProt P17948); experiment: Kinase inhibition assay (33P transfer), Flt-1
T15 construct: Kinases are expressed as either kinase domains or full length constructs; made in house
T15 sequence (P17948 27-1338, species assumed): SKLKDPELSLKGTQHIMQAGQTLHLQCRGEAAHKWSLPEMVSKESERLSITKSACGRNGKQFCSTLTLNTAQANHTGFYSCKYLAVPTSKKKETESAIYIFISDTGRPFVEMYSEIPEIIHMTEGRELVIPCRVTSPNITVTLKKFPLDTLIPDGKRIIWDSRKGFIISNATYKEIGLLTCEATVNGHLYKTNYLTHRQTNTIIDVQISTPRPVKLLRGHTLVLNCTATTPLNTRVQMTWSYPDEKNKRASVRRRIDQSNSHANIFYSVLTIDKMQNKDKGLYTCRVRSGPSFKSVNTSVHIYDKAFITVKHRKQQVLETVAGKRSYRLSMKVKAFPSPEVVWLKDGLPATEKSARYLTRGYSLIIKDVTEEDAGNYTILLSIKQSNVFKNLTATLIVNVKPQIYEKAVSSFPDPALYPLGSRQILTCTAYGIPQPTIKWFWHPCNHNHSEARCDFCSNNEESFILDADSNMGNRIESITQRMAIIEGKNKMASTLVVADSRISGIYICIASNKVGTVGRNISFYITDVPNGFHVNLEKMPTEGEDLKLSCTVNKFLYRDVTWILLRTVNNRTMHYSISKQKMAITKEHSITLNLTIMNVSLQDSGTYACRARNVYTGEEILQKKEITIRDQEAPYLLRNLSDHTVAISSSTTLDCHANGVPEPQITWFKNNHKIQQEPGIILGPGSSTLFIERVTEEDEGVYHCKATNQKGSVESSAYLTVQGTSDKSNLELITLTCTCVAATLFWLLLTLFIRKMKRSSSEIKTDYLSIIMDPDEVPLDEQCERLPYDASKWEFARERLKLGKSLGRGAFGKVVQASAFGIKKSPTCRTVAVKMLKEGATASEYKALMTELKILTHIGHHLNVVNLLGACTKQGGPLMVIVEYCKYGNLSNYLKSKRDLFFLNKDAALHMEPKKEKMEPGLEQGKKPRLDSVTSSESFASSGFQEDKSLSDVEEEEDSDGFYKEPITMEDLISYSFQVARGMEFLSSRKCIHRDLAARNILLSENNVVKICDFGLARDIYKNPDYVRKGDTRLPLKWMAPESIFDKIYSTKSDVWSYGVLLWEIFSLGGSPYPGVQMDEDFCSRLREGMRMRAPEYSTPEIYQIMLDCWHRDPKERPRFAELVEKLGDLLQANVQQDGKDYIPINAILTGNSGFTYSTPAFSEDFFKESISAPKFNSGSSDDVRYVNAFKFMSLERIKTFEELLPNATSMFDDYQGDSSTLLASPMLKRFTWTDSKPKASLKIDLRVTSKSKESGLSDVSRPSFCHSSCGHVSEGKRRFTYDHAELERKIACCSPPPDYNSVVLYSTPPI
Summary of the method: as §2

Hck-1 = target: T16, Hck-1 (Homo sapiens, UniProt P08631); experiment: Kinase inhibition assay (33P transfer), Hck; details: Table 6, Hck-1 kinase inhibition class
T16 construct: Kinases are expressed as either kinase domains or full length constructs; made in house
T16 sequence (P08631 whole entry, the tested form may be a part): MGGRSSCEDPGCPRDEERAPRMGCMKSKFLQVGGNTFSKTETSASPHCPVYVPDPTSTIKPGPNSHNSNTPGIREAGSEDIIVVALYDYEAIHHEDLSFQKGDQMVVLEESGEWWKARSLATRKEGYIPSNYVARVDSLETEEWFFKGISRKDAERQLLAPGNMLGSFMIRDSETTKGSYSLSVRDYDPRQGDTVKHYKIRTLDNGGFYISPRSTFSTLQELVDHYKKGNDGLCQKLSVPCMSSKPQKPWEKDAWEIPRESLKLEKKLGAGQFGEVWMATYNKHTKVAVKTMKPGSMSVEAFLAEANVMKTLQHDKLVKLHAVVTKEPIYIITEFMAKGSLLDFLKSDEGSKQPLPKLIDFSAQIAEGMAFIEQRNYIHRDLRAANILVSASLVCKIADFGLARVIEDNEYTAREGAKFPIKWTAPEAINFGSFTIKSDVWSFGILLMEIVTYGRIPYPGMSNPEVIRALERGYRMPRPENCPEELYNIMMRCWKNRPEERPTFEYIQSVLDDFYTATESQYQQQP

Lyn = target: T17, Lyn (Homo sapiens, UniProt P07948); experiment: Kinase inhibition assay (33P transfer), Lyn; details: Table 6, Lyn-1 kinase inhibition class
T17 construct: Kinases are expressed as either kinase domains or full length constructs; made in house
Summary of the method: as §2

FGFR1 = target: T18, FGFR1 (Homo sapiens, UniProt P11362); experiment: Kinase inhibition assay (33P transfer), FGFR1; details: read-out: FGFR1-1
T18 construct: Kinases are expressed as either kinase domains or full length constructs; made in house
T18 sequence (P11362 22-822, species assumed): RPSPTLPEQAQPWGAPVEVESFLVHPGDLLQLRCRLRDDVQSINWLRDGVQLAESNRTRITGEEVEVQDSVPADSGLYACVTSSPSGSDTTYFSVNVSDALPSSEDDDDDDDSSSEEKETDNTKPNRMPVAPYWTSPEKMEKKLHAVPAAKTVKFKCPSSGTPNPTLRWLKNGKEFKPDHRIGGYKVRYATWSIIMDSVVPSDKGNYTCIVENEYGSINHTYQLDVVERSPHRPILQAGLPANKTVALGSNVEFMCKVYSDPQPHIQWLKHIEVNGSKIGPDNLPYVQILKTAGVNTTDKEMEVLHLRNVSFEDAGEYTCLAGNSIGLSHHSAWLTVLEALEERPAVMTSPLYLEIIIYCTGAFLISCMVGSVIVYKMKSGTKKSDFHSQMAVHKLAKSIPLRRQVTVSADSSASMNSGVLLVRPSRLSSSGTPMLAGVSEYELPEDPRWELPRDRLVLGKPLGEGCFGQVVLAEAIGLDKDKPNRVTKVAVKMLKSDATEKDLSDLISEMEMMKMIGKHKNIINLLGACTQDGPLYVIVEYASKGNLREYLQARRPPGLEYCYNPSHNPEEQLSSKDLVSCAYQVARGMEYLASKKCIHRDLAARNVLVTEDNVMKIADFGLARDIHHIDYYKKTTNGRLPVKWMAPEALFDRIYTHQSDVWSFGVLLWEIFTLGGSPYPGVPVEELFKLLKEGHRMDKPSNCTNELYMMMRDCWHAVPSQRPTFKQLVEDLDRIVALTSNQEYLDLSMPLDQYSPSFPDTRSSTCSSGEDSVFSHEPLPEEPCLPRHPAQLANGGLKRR

ErbB4 = target: T19, ErbB4 (Homo sapiens, UniProt Q15303); experiment: Kinase inhibition assay (33P transfer), ErbB4; details: read-out: ErbB4-1
T19 construct: Kinases are expressed as either kinase domains or full length constructs; made in house

COc1cc(Nc2ncnc(Nc3ccc(Br)c4ccccc34)n2)cc(OC)c1OC [Compound 613]
IC50 (Zap-70): > 9.33 µM
IC50 (Kdr): 4.98 to 7.26 µM
IC50 (c-Met): > 9.33 µM
IC50 (Src): > 9.33 µM
IC50 (ErbB2): < 0.829 µM
IC50 (Ret-1): 0.829 to 4.98 µM
IC50 (Tek): > 9.33 µM
IC50 (AKT): > 9.33 µM
IC50 (PDGFRB): < 0.829 µM
IC50 (IGFR-1): 7.26 to 9.33 µM
IC50 (Itk): > 9.33 µM
IC50 (Fyn): > 9.33 µM
IC50 (EGFR): 0.829 to 4.98 µM
IC50 (Lck): 0.829 to 4.98 µM
IC50 (Flt-1): > 9.33 µM
IC50 (Hck-1): > 9.33 µM
IC50 (Lyn): 4.98 to 7.26 µM
IC50 (FGFR1): 0.829 to 4.98 µM
IC50 (ErbB4): 0.829 to 4.98 µM

COc1cc(Nc2ncnc(-n3c(NCc4ccccc4Cl)nc4ccccc43)n2)cc(OC)c1OC [Compound 943]
IC50 (Zap-70): 4.63 to 6.76 µM
IC50 (Kdr): < 0.772 µM
IC50 (c-Met): > 8.69 µM
IC50 (Src): > 8.69 µM
IC50 (ErbB2): > 8.69 µM
IC50 (Ret-1): < 0.772 µM
IC50 (Tek): 6.76 to 8.69 µM
IC50 (AKT): > 8.69 µM
IC50 (PDGFRB): < 0.772 µM
IC50 (IGFR-1): > 8.69 µM
IC50 (Itk): > 8.69 µM
IC50 (Fyn): > 8.69 µM
IC50 (EGFR): > 8.69 µM
IC50 (Lck): 0.772 to 4.63 µM
IC50 (Flt-1): 0.772 to 4.63 µM
IC50 (Hck-1): > 8.69 µM
IC50 (Lyn): 0.772 to 4.63 µM
IC50 (FGFR1): 0.772 to 4.63 µM
IC50 (ErbB4): 6.76 to 8.69 µM

COc1cc(Nc2ncnc(Nc3cccc4ccccc34)n2)cc(OCCN2CCOCC2)c1OC [Compound 953]
IC50 (Zap-70): > 8.95 µM
IC50 (Kdr): 0.796 to 4.78 µM
IC50 (c-Met): > 8.95 µM
IC50 (Src): < 0.796 µM
IC50 (ErbB2): 0.796 to 4.78 µM
IC50 (Ret-1): 0.796 to 4.78 µM
IC50 (Tek): 0.796 to 4.78 µM
IC50 (AKT): > 8.95 µM
IC50 (PDGFRB): < 0.796 µM
IC50 (IGFR-1): 4.78 to 6.96 µM
IC50 (Itk): 6.96 to 8.95 µM
IC50 (Fyn): < 0.796 µM
IC50 (EGFR): < 0.796 µM
IC50 (Lck): < 0.796 µM
IC50 (Flt-1): 0.796 to 4.78 µM
IC50 (Hck-1): 0.796 to 4.78 µM
IC50 (Lyn): < 0.796 µM
IC50 (FGFR1): 0.796 to 4.78 µM
IC50 (ErbB4): 0.796 to 4.78 µM

COc1cc(Nc2ncnc(-c3cccnc3NCc3ccc(F)cc3)n2)cc(OC)c1OC [Compound 1088]
IC50 (Zap-70): > 9.73 µM
IC50 (Kdr): < 0.865 µM
IC50 (c-Met): > 9.73 µM
IC50 (Src): > 9.73 µM
IC50 (ErbB2): > 9.73 µM
IC50 (Ret-1): < 0.865 µM
IC50 (Tek): > 9.73 µM
IC50 (AKT): > 9.73 µM
IC50 (PDGFRB): < 0.865 µM
IC50 (IGFR-1): > 9.73 µM
IC50 (Itk): > 9.73 µM
IC50 (Fyn): > 9.73 µM
IC50 (EGFR): > 9.73 µM
IC50 (Lck): 5.19 to 7.57 µM
IC50 (Flt-1): > 9.73 µM
IC50 (Hck-1): > 9.73 µM
IC50 (Lyn): > 9.73 µM
IC50 (FGFR1): < 0.865 µM
IC50 (ErbB4): > 9.73 µM

COc1cc(Nc2ncnc(Nc3ccc(Cl)c4ccccc34)n2)cc(OC)c1OC [Compound 1031]
IC50 (Zap-70): > 10.3 µM
IC50 (Kdr): 5.48 to 7.99 µM
IC50 (c-Met): > 10.3 µM
IC50 (Src): 5.48 to 7.99 µM
IC50 (ErbB2): 0.913 to 5.48 µM
IC50 (Ret-1): 0.913 to 5.48 µM
IC50 (Tek): > 10.3 µM
IC50 (AKT): > 10.3 µM
IC50 (PDGFRB): < 0.913 µM
IC50 (IGFR-1): 0.913 to 5.48 µM
IC50 (Itk): > 10.3 µM
IC50 (Fyn): > 10.3 µM
IC50 (EGFR): < 0.913 µM
IC50 (Lck): 0.913 to 5.48 µM
IC50 (Flt-1): > 10.3 µM
IC50 (Hck-1): > 10.3 µM
IC50 (Lyn): 0.913 to 5.48 µM
IC50 (FGFR1): 0.913 to 5.48 µM
IC50 (ErbB4): > 10.3 µM
